Assay results as given in ChEMBL document CHEMBL5465560, “Selectivity Literature for EUbOPEN Chemogenomic Library” (2024).
One block for each molecule: values may come before it.

How the values were obtained:
[1] = target: T1, Tyrosine-protein kinase receptor TYRO3 (Homo sapiens) (UniProt Q06418); conditions: at 10 µM
T1 sequence (whole entry): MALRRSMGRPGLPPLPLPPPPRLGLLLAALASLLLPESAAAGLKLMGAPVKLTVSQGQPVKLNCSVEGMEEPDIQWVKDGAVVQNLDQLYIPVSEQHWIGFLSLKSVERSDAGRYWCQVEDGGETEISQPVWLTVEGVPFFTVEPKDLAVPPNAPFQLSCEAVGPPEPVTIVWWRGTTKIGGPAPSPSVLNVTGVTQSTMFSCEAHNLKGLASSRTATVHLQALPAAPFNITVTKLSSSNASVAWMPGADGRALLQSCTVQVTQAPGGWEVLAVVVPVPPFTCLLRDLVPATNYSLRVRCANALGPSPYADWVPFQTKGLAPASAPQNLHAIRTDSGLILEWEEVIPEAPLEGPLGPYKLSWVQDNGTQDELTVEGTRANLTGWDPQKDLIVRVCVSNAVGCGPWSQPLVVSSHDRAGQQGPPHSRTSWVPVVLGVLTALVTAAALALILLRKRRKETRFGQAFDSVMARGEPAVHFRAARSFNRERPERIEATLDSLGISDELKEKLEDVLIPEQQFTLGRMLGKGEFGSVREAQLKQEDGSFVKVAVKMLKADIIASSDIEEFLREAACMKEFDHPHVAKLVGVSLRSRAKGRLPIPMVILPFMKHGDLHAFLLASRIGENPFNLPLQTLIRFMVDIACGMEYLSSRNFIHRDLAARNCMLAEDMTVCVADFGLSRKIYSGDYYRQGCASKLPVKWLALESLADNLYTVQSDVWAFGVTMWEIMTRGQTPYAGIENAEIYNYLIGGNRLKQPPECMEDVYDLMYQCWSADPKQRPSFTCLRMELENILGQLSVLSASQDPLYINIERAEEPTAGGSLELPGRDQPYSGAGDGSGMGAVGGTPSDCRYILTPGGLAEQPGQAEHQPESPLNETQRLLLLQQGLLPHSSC

[2] = target: Glycogen synthase kinase-3 alpha (Homo sapiens, UniProt P49840); test: Selectivity interaction (Ambit KINOMEscan and KiNATiv profiling in Jurkat cells) EUB0000090b GSK3A; assay type: cell-based; conditions: at 1 µM
[3] = target: T2, Protein arginine N-methyltransferase 9 (Homo sapiens) (UniProt Q6P2P2); test: Selectivity interaction (Methyltransferase screen (radiometric assays, panel of 8 PRMTs, 21 protein lysine methyltransferases, 3 DNA methyltransferases, and one RNA methyltransferase)) EUB0000272b PRMT9
T2 sequence (whole entry): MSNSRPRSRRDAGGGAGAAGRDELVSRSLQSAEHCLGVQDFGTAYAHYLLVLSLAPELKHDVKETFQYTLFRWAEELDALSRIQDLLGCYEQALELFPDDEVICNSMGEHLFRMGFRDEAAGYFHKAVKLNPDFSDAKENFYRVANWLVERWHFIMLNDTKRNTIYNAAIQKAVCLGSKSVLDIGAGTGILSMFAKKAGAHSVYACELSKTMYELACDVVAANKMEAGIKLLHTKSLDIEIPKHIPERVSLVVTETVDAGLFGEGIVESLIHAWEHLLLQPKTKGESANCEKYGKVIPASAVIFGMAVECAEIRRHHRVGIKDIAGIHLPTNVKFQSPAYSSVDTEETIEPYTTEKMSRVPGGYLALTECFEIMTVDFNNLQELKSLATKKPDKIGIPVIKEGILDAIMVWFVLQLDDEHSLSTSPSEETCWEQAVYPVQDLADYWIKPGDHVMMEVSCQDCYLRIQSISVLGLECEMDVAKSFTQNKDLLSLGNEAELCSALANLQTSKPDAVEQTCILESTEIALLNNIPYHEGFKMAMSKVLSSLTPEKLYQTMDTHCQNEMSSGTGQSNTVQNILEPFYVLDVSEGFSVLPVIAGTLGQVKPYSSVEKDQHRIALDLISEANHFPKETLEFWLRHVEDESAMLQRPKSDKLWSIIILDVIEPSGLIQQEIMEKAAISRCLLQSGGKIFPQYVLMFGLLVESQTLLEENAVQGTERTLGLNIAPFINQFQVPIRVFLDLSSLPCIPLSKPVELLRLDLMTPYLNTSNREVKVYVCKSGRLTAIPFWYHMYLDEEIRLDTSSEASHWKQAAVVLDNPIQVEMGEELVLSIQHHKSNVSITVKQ

[4] = target: Ribosomal protein S6 kinase alpha-1 (Homo sapiens, UniProt Q15418); conditions: at 10 µM
[5] = target: Calcium/calmodulin-dependent protein kinase type 1B (Homo sapiens) (UniProt Q6P2M8); test: Selectivity interaction (KinomeScan (DiscoverX)) EUB0000229b PNCK; conditions: at 10 µM
[6] = target: Cyclin-dependent kinase 13 (Homo sapiens, UniProt Q14004); test: Selectivity interaction (ActivX KiNativ screen (ex vivo kinase selectivity in human PBMCs)) EUB0001619a CDK13; assay type: cell-based; conditions: PBMC, at 1 µM
[7] = target: T3, Mitogen-activated protein kinase kinase kinase 2 (Homo sapiens) (UniProt Q9Y2U5); test: Selectivity interaction (KinomeScan (DiscoverX)) EUB0001619a MAP3K2; conditions: at 1 µM
T3 sequence (whole entry): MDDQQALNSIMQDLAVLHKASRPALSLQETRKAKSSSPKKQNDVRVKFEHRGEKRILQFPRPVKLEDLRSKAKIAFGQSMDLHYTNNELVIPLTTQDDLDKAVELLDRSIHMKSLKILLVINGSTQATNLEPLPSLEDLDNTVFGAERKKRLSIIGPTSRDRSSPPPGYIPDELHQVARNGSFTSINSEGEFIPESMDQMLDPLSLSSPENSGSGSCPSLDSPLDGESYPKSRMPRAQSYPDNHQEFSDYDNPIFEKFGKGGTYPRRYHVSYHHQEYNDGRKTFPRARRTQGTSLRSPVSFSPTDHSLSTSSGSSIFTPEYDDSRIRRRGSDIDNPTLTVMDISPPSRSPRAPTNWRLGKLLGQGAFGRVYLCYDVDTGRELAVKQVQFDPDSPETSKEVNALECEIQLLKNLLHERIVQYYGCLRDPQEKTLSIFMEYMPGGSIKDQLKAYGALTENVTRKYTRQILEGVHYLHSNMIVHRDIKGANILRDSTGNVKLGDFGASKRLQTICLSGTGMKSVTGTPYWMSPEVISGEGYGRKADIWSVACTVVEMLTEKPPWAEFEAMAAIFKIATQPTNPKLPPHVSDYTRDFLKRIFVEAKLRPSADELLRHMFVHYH

[8] = target: Tyrosine-protein kinase Fes/Fps (Homo sapiens) (UniProt P07332); test: Selectivity interaction (Kinase panel (DSF assay)) EUB0001559a FES
Chain of Tyrosine-protein kinase Fes/Fps (Homo sapiens) (P07332 whole entry): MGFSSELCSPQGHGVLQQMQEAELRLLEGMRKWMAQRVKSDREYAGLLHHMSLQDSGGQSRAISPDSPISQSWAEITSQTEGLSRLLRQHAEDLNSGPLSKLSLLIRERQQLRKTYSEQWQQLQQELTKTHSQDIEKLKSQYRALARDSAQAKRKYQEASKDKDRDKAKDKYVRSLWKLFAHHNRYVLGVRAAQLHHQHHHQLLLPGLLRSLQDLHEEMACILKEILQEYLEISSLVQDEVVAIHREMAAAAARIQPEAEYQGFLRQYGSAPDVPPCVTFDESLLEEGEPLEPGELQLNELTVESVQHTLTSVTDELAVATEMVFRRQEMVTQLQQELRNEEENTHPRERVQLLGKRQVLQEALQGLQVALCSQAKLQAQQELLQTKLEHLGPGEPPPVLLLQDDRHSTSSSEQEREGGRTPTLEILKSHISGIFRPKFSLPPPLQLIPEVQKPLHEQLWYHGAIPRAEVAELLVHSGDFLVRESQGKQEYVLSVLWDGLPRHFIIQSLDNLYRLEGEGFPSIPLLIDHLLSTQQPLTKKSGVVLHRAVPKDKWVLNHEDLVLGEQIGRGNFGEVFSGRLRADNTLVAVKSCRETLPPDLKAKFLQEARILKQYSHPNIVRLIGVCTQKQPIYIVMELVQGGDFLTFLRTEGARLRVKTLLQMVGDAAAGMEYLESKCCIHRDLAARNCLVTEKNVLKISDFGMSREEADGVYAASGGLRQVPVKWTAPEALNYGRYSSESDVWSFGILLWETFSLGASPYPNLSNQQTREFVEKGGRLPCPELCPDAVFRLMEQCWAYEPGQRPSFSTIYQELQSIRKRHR

Chain of Ribosomal protein S6 kinase alpha-1 (Q15418 whole entry): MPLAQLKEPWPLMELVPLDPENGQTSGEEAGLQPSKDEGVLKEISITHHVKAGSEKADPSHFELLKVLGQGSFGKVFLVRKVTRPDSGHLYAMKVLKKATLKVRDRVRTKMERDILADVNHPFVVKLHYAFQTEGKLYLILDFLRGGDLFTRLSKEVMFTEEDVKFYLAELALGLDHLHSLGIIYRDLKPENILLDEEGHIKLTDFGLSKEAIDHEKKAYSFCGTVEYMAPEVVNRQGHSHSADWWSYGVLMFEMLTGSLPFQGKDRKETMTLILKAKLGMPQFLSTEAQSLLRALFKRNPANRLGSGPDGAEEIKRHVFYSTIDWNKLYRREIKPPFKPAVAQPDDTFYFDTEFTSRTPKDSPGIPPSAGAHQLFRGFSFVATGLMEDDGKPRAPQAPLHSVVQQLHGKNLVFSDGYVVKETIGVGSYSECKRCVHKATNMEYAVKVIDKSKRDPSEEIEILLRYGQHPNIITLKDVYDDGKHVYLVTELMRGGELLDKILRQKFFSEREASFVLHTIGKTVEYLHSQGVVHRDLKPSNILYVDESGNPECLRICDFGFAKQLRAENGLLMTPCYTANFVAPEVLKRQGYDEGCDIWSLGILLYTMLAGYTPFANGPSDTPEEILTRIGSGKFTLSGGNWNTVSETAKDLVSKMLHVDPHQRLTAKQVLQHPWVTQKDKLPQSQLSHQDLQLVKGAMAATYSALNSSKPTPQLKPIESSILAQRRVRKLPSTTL
Chain of Calcium/calmodulin-dependent protein kinase type 1B (Homo sapiens) (Q6P2M8 whole entry): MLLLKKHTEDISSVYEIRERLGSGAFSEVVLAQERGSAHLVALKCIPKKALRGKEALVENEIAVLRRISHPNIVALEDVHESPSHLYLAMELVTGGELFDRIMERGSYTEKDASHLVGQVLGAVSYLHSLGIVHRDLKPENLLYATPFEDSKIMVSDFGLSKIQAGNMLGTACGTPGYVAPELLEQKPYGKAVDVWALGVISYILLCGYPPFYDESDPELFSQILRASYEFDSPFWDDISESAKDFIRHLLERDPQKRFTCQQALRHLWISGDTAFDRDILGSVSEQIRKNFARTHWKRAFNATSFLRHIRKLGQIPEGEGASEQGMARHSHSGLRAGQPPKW
Chain of Cyclin-dependent kinase 13 (Q14004 whole entry, looked up): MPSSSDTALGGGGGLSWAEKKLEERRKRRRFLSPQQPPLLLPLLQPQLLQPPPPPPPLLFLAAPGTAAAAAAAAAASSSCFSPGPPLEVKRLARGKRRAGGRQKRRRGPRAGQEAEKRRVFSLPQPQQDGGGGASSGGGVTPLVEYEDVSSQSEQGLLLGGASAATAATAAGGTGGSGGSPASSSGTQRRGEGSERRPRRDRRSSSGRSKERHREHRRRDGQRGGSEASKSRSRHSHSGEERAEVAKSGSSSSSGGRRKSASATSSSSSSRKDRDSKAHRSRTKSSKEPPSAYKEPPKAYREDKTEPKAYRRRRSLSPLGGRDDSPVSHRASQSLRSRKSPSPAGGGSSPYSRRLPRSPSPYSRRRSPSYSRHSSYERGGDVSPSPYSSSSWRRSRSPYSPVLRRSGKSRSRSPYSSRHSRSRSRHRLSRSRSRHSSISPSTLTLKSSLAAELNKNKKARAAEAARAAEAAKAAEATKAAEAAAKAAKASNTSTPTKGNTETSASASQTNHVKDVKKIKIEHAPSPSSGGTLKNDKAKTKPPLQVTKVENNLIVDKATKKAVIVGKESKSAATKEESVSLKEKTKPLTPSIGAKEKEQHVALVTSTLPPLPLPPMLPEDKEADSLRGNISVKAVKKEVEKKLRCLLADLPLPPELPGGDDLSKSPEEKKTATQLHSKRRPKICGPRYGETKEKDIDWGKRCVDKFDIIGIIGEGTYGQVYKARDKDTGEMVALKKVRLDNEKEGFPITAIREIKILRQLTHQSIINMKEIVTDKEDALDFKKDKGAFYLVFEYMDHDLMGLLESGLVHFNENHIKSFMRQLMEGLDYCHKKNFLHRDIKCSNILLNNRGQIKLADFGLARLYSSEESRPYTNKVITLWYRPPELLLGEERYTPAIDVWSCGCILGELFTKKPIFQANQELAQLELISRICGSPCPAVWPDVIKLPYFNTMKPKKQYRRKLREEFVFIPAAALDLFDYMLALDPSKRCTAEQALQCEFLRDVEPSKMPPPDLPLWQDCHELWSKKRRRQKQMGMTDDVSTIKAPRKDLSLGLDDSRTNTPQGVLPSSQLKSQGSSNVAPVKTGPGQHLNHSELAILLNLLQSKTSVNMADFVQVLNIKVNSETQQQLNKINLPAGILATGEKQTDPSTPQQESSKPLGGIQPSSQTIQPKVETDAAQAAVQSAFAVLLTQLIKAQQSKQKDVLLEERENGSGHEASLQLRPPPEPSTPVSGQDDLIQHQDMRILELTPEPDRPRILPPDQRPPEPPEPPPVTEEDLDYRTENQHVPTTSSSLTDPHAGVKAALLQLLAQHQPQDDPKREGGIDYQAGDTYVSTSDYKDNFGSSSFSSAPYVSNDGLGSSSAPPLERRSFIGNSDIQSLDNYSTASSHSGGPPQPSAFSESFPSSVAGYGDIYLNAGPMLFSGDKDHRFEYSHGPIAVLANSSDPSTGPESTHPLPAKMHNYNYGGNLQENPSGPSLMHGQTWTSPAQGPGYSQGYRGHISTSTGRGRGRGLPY
Chain of Glycogen synthase kinase-3 alpha (P49840 2-483 limits assumed): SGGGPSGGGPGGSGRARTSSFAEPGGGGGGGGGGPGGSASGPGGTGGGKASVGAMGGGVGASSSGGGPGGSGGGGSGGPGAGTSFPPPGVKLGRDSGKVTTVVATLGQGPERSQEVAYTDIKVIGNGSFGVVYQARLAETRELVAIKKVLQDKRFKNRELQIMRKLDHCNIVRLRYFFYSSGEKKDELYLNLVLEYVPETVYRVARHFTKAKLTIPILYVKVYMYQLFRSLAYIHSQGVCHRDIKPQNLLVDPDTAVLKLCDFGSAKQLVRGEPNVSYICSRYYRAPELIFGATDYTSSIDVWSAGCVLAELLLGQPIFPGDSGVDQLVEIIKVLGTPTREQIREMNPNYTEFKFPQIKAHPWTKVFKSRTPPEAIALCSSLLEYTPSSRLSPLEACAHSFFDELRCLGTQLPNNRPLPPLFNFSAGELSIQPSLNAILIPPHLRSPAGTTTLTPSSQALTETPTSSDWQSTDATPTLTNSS

SMILES: Cc1cc([C@@H](C)Nc2ccccc2C(=O)O)c2nc(N3CCOCC3)cc(=O)n2c1 [AZD-6482]
% of control [1]: 100%

SMILES: CN(C)C/C=C/C(=O)Nc1ccc(C(=O)N2CCCC(Nc3ncc(Cl)c(-c4c[nH]c5ccccc45)n3)C2)cc1 (centres undefined)
% of control [2]: 5.7%

% of activity ([3]; at 1 µM): 105% | % of activity ([3]; at 10 µM): 105%
SMILES: Cc1cc(C)cc([C@H]2c3cc(C)ccc3NC(=O)CN2C(=O)c2ccc(Br)s2)c1

% of control [4]: 100%
SMILES: CCN(CC)CCCCNc1ncc2cc(-c3cc(OC)cc(OC)c3)c(NC(=O)NC(C)(C)C)nc2n1

SMILES: COc1cc(N(C)c2ccnc3ccc(C(F)(F)F)cc23)cc(OC)c1OC
% binding [5]: 98%

SMILES: N#Cc1cccc(-c2c[nH]c3ncnc(N4CCOCC4)c23)c1
% of inhibition [6]: 3% | % of control [7]: 21%

dTM [8]: -0.6 K
SMILES: CN(C(=O)c1cnn2cccnc12)c1cc2c(cc1N1CCOCC1)C(=O)N(C[C@@H](F)C(C)(C)O)C2
